System: GFP-expressing A549 human lung cancer cells
Experiment: Response of cells-in-string to toxins/drugs (crossed drug-laden string, confocal imaging)
Type: cell-based
Protocol: Scale bar represents 150 μm.
Cells in string were evaluated for the effect of a toxic drug on cancer cells. Green fluorescent protein (GFP) expressing A549 human lung cancer cells were grown in cotton string in Matrigel for two days. […] Doxorubicin was selected due to its potency in cancer treatment. These two strings were then crossed and sandwiched between two layers of filter paper that were impregnated with Matrigel. This assembly was cultured for two days and the cellular patterns that were transferred to the paper were imaged. […] A second experiment included the doxorubicin-laden string (FIG. 7B).

## COc1cccc2c1C(=O)c1c(O)c3c(c(O)c1C2=O)C[C@@](O)(C(=O)CO)C[C@@H]3O[C@H]1C[C@H](N)[C@H](O)[C@H](C)O1 [Doxorubicin]
1 μM Doxorubicin embedded in top string, cells grown in silk string for two days, top string removed following 24 h culture (FIG. 7B)
  cell death of GFP-A549 cells where exposed to drug-laden top string: died in the area where they were exposed to the top string
1 mM Doxorubicin encapsulated in string, cells in cotton string in Matrigel, crossed, sandwiched between Matrigel-impregnated filter paper, cultured two days
  cell death of GFP-A549 cells where contacted by drug-laden top string: died on the region where they contacted the top string containing doxorubicin

— patent US20170130196A1, “METHOD FOR CULTURING AND PATTERNING CELLS” (President and Fellows of Harvard College, priority 2015, published 2017)
